This assay deals with T1, rh integrin α4β7 (Homo sapiens, UniProt P13612+P26010).
T1 construct: purchased R&D Systems 5397-A30
T1 sequence (P13612 34-977 limits assumed): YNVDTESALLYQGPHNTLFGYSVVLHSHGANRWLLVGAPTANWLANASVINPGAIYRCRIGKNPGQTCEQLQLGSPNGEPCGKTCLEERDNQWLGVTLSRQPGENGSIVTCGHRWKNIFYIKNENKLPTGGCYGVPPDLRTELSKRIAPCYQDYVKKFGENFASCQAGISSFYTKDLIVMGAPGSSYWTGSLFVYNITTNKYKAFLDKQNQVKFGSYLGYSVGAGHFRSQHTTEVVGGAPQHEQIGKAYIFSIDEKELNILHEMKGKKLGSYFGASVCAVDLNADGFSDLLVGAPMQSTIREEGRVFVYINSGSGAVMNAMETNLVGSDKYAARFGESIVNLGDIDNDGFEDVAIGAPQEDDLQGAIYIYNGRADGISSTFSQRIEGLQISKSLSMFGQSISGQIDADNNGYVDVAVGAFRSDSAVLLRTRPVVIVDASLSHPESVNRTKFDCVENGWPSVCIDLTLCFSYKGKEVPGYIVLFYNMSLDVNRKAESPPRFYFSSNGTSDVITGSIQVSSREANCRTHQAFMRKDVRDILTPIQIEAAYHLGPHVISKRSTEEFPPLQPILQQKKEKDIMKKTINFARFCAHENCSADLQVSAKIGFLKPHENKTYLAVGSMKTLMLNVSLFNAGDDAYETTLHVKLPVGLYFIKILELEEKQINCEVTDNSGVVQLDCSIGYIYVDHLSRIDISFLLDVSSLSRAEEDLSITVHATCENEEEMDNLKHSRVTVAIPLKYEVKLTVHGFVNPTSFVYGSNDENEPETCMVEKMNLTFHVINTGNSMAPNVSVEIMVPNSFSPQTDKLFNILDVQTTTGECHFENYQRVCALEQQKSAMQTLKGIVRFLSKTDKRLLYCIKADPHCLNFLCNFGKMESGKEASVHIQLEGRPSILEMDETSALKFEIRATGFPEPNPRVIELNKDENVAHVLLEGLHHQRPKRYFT
T1 sequence (P26010 20-723 limits assumed): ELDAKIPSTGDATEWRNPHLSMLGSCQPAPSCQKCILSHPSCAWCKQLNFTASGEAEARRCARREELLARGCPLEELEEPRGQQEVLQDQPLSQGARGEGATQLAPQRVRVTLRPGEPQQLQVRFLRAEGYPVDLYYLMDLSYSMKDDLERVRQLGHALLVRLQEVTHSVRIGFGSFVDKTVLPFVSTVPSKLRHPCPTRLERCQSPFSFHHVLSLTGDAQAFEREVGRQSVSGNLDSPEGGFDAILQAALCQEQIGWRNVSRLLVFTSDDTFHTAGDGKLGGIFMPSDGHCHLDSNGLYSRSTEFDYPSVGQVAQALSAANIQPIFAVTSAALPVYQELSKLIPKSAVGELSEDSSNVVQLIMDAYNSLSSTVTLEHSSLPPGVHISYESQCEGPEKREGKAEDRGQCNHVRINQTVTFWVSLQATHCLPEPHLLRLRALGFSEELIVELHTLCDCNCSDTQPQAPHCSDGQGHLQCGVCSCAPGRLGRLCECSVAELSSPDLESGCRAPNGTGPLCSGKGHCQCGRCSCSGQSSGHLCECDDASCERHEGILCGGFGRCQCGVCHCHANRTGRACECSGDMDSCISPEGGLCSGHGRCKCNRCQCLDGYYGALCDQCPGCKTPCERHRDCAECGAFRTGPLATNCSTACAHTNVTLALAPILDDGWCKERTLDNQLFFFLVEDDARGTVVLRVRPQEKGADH
Put plainly: α4β7-MAdCAM Competition ELISA. Conditions: thioether peptide dimers, Table 7; read-out: ELISA A4B7. The class given is binding. Put shortly: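 Recombinant human α4β7 captured on nickel-coated plates, then incubated 1 h at room temperature with serially diluted peptides (final top 10 μM) and 10 nM final MAdCAM-1 in Tris pH 7.6 buffer with 1 mM MnCl2 or MgCl2. Bound MAdCAM-1 detected with anti-human IgG1-HRP and TMB, absorbance at 450 nm.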
In general terms: An ELISA detects its analyte on a solid surface through an enzyme-linked reagent.

*1 amine or outer side, *2 acyl side, *3 side chain or, on linkers, in order; H or OH if unused. Where a SMILES comes first, the peptide text is derived from it. Bridges are numbered along the chain shown (N, C = ends). Roman numbers before positions name the chains, in order. [ ]: non-standard residue; d: D form. Diglycolyl = O=C(COCC(=O)[*:2])[*:1]; NMeR = CN[C@@H](CCCNC(=N)N)C(=O)O; X1 = O=C(c1ccccc1C[*:2])[*:1]; Pen = CC(C)(S)[C@H](N)C(=O)O

Consider `CC(C)C[C@@H]1NC(=O)[C@H]([C@@H](C)O)NC(=O)[C@H](CC(=O)O)NC(=O)[C@H](CO)NC(=O)[C@H](CCCNC(=N)N)N(C)C(=O)c2ccccc2CSC(C)(C)[C@@H](C(=O)N[C@@H](Cc2c[nH]c3ccccc23)C(=O)N[C@H](CCC(=O)O)C(=O)N[C@H](CCCCNC(=O)COCC(=O)NCCCC[C@@H](NC(=O)[C@@H](CCC(=O)O)NC(=O)[C@H](Cc2c[nH]c3ccccc23)NC(=O)[C@H]2NC(=O)[C@H](CC(C)C)NC(=O)[C@H]([C@@H](C)O)NC(=O)[C@H](CC(=O)O)NC(=O)[C@H](CO)NC(=O)[C@H](CCCNC(=N)N)N(C)C(=O)c3ccccc3CSC2(C)C)C(=O)O)C(=O)O)NC1=O` [compound 209] (I: [NMeR]SDTL[Pen]W[dE][dK]-OH / II: [NMeR]SDTL[Pen]W[dE][dK]-OH; linker I:9-II:9 via Diglycolyl; linker I:N-I:6, II:N-II:6 via X1), for which the IC50 was less than 25 nM.

(Values after US20260217767A1, “NOVEL A4B7 THIOETHER PEPTIDE DIMER ANTAGONISTS” (Protagonist Therapeutics, Inc., priority 2014, published 2026).)
